Results on 24 compounds are retold here after patent US8598202B2, “Aryl-hydroxyethylamino-pyrimidines and triazines as modulators of fatty acid amide hydrolase” (Janssen Pharmaceutica NV, priority 2008, dated 2013).

Counter-ions that a name gives are not always drawn. Like-named read-outs stand apart in the source and are kept apart here.

As a reminder, the IC50 is the midpoint of a concentration-inhibition curve.

Assay [1] concerns the target T1, FAAH (Homo sapiens, UniProt O00519).
T1 sequence (O00519 1-579): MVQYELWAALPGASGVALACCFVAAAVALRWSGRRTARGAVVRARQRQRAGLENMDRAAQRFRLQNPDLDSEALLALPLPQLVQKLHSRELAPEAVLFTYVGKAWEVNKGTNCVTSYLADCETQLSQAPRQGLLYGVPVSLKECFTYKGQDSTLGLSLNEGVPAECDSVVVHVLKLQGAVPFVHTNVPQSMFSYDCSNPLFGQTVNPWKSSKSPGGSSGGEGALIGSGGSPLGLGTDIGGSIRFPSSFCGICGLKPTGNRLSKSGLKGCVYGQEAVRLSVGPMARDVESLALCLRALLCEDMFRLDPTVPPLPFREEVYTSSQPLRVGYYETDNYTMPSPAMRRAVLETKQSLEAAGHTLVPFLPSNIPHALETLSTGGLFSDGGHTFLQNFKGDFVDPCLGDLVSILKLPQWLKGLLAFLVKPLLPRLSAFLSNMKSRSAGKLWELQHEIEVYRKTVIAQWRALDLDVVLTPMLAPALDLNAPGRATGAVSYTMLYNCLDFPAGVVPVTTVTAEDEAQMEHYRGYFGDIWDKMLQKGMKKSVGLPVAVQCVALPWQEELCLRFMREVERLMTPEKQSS
Put plainly: Assay Method 1: FAAH assay, 3H-anandamide hydrolysis in homogenate of T84 cells or SK-N-MC cells transfected with human FAAH.

The target in assay [2] is T2, Rat FAAH-1 (Rattus norvegicus, UniProt P97612).
T2 sequence (P97612 1-579): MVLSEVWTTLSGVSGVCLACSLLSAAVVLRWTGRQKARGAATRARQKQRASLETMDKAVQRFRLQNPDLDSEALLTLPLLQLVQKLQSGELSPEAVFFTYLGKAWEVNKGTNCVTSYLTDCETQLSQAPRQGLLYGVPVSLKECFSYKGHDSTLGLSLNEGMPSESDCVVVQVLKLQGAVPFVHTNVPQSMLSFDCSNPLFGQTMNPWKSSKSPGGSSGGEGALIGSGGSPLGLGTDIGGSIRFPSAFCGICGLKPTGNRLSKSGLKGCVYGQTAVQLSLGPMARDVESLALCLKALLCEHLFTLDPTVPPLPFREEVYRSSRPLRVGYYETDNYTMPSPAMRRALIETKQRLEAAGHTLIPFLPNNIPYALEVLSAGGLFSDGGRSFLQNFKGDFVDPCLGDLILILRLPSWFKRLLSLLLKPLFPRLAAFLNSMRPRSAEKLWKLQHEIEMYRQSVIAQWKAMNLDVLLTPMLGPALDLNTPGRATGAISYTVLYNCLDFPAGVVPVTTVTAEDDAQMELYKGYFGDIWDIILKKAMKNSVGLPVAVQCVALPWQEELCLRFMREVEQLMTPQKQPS
Put plainly: Assay Method 2: rat FAAH-1 assay, 3H-anandamide hydrolysis in homogenate of SK-N-MC cells transfected with rat FAAH.

`CNCCNc1nc(NC[C@H](O)c2ccccc2)cc(-c2ccc(C(F)(F)F)c(Cl)c2)n1` [Example 163, (1R)-2-[(6-[3-Chloro-4-(trifluoromethyl)phenyl]-2-{[2-(methylamino)ethyl]amino}pyrimidin-4-yl)amino]-1-phenylethanol hydrochloride salt]: the IC50 in assay [1] and in assay [2] was 2000 nM throughout.

Turning to `OC(CNc1cc(-c2ccc(OC(F)(F)F)cc2)ncn1)c1ccccc1Cl` (stereo not drawn) [Example 115, 1-(2-Chlorophenyl)-2-[(6-{4-[(trifluoromethyl)oxy]phenyl}pyrimidin-4-yl)amino]ethanol], the IC50 stood at 140 nM in assay [1] and 205 nM in assay [2].

Regarding `OC(CNc1cc(-c2ccc(Cl)c(Cl)c2)ncn1)c1ccccc1` (stereo not drawn) [Example 8, 2-{[6-(3,4-Dichlorophenyl)pyrimidin-4-yl]amino}-1-phenylethanol], the IC50 in assay [1] worked out at 74 nM; in assay [2] it was 168 nM.

Regarding `OC(CNc1cc(-c2ccc3c(c2)OCO3)ncn1)c1ccccc1` (stereo not drawn) [Example 232, 2-(6-Benzo[1,3]dioxol-5-yl-pyrimidin-4-ylamino)-1-phenyl-ethanol], the values for the IC50 in assay [1] and in assay [2] were 150 nM and 1000 nM, respectively.

In the case of `O=[N+]([O-])c1ccc(-c2cc(NCC(O)c3ccccc3)ncn2)cc1` (stereo not drawn) [Example 5, 2-{[6-(4-Nitrophenyl)pyrimidin-4-yl]amino}-1-phenylethanol trifluoroacetic acid salt], the concentration for half-maximal inhibition (IC50) came to 132 nM in assay [1] and 153 nM in assay [2].

On to `OC(CNc1cc(-c2ccc(C(F)(F)F)c(Cl)c2)ncn1)c1nc2ccccc2s1` (stereo not drawn) [Example 216, 1-Benzothiazol-2-yl-2-[6-(3-chloro-4-trifluoromethyl-phenyl)-pyrimidin-4-ylamino]-ethanol], for which the IC50 in assay [1] and in assay [2] was more than 10000 nM each time.

As for `O[C@@H](CNc1cc(-c2ccc3c(C(F)(F)F)csc3c2)ncn1)c1ccccc1` [Example 221], the values for the IC50 in assay [1] and in assay [2] were 19 nM and 480 nM, respectively.

Take `O=S(=O)(c1ccc(-c2cc(NC[C@H](O)c3ccccc3)ncn2)cc1)N1CCSCC1` [Example 172, (1R)-1-Phenyl-2-({6-[4-(thiomorpholin-4-ylsulfonyl)phenyl]pyrimidin-4-yl}amino)ethanol]: the IC50 in assay [1] amounted to 8000 nM; in assay [2], 1500 nM.

Turning to `O[C@@H](CNc1cc(-c2ccc(N3CCOCC3)nc2)ncn1)c1ccccc1` [Example 70, (1R)-2-{[6-(6-Morpholin-4-ylpyridin-3-yl)pyrimidin-4-yl]amino}-1-Phenylethanol], the IC50 is 800 nM in assay [1] and more than 10000 nM in assay [2].

Regarding `OC(CNc1cc(-c2ccc(C(F)(F)F)c(Cl)c2)ncn1)c1ccc(C(F)(F)F)c(F)c1` (stereo not drawn) [Example 197, 2-({6-[3-Chloro-4-(trifluoromethyl)phenyl]pyrimidin-4-yl}amino)-1-[3-fluoro-4-(trifluoromethyl)phenyl]ethanol], the IC50 in assay [1] came to 100 nM; in assay [2], 34 nM.

With `COc1ccc(C(O)CNc2cc(-c3ccc(C(F)(F)F)c(Cl)c3)ncn2)cc1OC` (stereo not drawn) [Example 202, 2-({6-[3-Chloro-4-(trifluoromethyl)phenyl]pyrimidin-4-yl}amino)-1-(3,4-dimethoxyphenyl)ethanol], the IC50 in assay [1] amounted to 225 nM; in assay [2], 100 nM.

Turning to `O[C@@H](CNc1cc(-c2ccc(Cl)c(F)c2)ncn1)c1ccccc1` [Example 27, (1R)-2-{[6-(4-Chloro-3-fluorophenyl)pyrimidin-4-yl]amino}-1-phenylethanol trifluoroacetic acid salt], the figures for the 50% inhibitory concentration (IC50) in assay [1] and in assay [2] were 24 nM and 120 nM, respectively.

As for `CC(=O)Nc1cccc(-c2cc(NCC(O)c3ccccc3)ncn2)c1` (stereo not drawn) [CE2, N-{3-[6-(2-Hydroxy-2-phenyl-ethylamino)-pyrimidin-4-yl]-phenyl}-acetamide, reference compound], the IC50 in assay [1] (read-out: Assay 1 IC50, Table 2, Comparative Examples, human FAAH) was more than 10000 nM; in assay [2] (read-out: Assay 2 IC50, Table 2, Comparative Examples, rat FAAH-1) it was more than 10000 nM.

With `OC(CNc1cc(-c2ccc(OC(F)(F)F)cc2)ncn1)c1ccc(Cl)c(Cl)c1` (stereo not drawn) [Example 114, 1-(3,4-Dichlorophenyl)-2-[(6-{4-[(trifluoromethyl)oxy]phenyl}-pyrimidin-4-yl)amino]ethanol], the figures for the IC50 in assay [1] and in assay [2] were 46 nM and 43 nM, respectively.

Turning to `N#Cc1ccc(-c2cc(NC[C@H](O)c3ccccc3)ncn2)cc1F` [Example 88, 2-Fluoro-4-(6-{[(2R)-2-hydroxy-2-phenylethyl]amino}pyrimidin-4-yl)benzonitrile trifluoroacetic acid salt], the IC50 turned out to be 65 nM in assay [1] and 33 nM in assay [2].

For `OC(CNc1cc(-c2ccc(C(F)(F)F)c(Cl)c2)ncn1)c1ccc(-c2cccs2)cc1` (stereo not drawn) [Example 194, 2-({6-[3-Chloro-4-(trifluoromethyl)phenyl]pyrimidin-4-yl}amino)-1-(4-thiophen-2-ylphenyl)ethanol], the IC50 stood at 11 nM in assay [1] and 210 nM in assay [2].

`O[C@@H](CNc1cc(-c2cc(F)cc(F)c2)ncn1)c1ccccc1` [Example 58, (1R)-2-{[6-(3,5-Difluorophenyl)pyrimidin-4-yl]amino}-1-phenylethanol trifluoroacetic acid salt]: the IC50 in assay [1] came out at 104 nM; in assay [2], 470 nM.

On to `O[C@@H](CNc1cc(-c2csc3ccccc23)ncn1)c1ccccc1` [Example 87, (1R)-2-{[6-(1-Benzothiophen-3-yl)pyrimidin-4-yl]amino}-1-phenylethanol trifluoroacetic acid salt], for which the IC50 in assay [1] amounted to 42 nM; in assay [2], 1400 nM.

In the case of `COc1ccc(-c2cc(NC[C@H](O)c3ccccc3)ncn2)cn1` [Example 63, (1R)-2-{[6-(6-Methoxypyridin-3-yl)pyrimidin-4-yl]amino}-1-phenylethanol], the IC50 was found to be 450 nM in assay [1] and 2000 nM in assay [2].

For the compound `O[C@@H](CNc1cc(-c2cccc(C(F)(F)F)c2)ncn1)c1ccccc1` [Example 105, (1R)-1-Phenyl-2-({6-[3-(trifluoromethyl)phenyl]pyrimidin-4-yl}amino)ethanol], the figures for the IC50 in assay [1] and in assay [2] were 190 nM and 1000 nM, respectively.

With `OC(CNc1cc(-c2ccc(C(F)(F)F)c(Cl)c2)ncn1)c1cc(-c2ccccc2)no1` (stereo not drawn) [Example 207, 2-({6-[3-Chloro-4-(trifluoromethyl)phenyl]pyrimidin-4-yl}amino)-1-(3-phenylisoxazol-5-yl)ethanol], the IC50 worked out at 67 nM in assay [1] and 111 nM in assay [2].

Consider `CC(C)(C)c1ccc(-c2cc(NCC(O)c3ccccc3)ncn2)cc1` (stereo not drawn) [Example 224, 2-({6-[4-(1,1-Dimethylethyl)phenyl]pyrimidin-4-yl}amino)-1-phenylethanol], for which the IC50 in assay [1] came out at 28 nM; in assay [2] it was 538 nM.

With `CN(C)CCNc1nc(NC[C@H](O)c2ccccc2)cc(-c2ccc(C(F)(F)F)c(Cl)c2)n1` [Example 158, (1R)-2-[(6-[3-Chloro-4-(trifluoromethyl)phenyl]-2-{[2-(dimethylamino)ethyl]amino}pyrimidin-4-yl)amino]-1-phenylethanol trifluoroacetic acid salt], the results for the IC50 in assay [1] and in assay [2] were 3460 nM and 110 nM, respectively.

On to `OC(CNc1cc(-c2ccc(C(F)(F)F)c(Cl)c2)ncn1)c1ccccc1F` (stereo not drawn) [Example 212, 2-({6-[3-Chloro-4-(trifluoromethyl)phenyl]pyrimidin-4-yl}amino)-1-(2-fluorophenyl)ethanol], for which the IC50 stood at 65 nM in assay [1] and 39 nM in assay [2].
